Measured values as given in patent publication US10877036B2, “Biosensor based on Gβγ-interacting proteins to monitor G-protein activation” (priority 2014, dated 2020).
Substitutions are numbered along the chain they refer to. Starred links: 1 amine or outer side, 2 acyl side, 3 side chain; linkers in the order of their positions; H or OH if unused. Positions of bridges follow the written chain, without caps; N, C: chain ends. Non-standard residues stand in square brackets, D forms with d. Residues, ends and D or L forms follow the SMILES beside them. *: point of attachment. Leu(3R-OH,Nα-propionyl) = CCC(=O)N[C@H](C(=O)*)[C@H](O)C(C)C; X1 = CC(C)[C@@H](O[*:3])[C@H](N[*:1])C(=O)[*:2]; NMeT = CN[C@H](C(=O)O)[C@@H](C)O; dPhLac = O=C(O)[C@H](O)Cc1ccccc1; NMeA = CN[C@@H](C)C(=O)O; NMeDha = C=C(NC)C(=O)O

What was measured:
Gα15/16 = molecular target: T1, Gα15/16 (Homo sapiens, UniProt P30679); test: Ubo-Qic selectivity, TPαR-mediated G-protein activation (BRET biosensor); format: cell-based; conditions: U-46619 100 nM, FIG. 5C
T1 construct: host or cells: HEK293
T1 sequence (P30679 1-374): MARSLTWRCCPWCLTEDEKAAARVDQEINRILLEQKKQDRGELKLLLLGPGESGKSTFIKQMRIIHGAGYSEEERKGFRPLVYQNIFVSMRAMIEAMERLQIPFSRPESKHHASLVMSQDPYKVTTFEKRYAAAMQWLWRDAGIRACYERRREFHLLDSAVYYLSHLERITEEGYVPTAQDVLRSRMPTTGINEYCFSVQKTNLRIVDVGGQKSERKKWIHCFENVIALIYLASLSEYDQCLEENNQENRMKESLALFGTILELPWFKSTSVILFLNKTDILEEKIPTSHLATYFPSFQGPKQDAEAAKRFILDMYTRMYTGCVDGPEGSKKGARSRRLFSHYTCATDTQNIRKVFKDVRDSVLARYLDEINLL
Protocol: (§1) BRET assays in living cells. Cells seeded in 96-well plates were washed twice with Phosphate Buffered Saline (PBS), followed by Tyrode buffer addition (composition: 137 mM NaCl, 0.9 mM KCl, 1 mM MgCl2, 11.9 mM NaHCO3, 3.6 mM NaH2PO4, 25 mM HEPES, 5.5 mM Glucose and 1 mM CaCl2, pH 7.4). The cells were then treated with the different ligands or vehicle for the indicated times. The Rluc substrate, coelenterazine 400a, was added at a final concentration of 2.5 μM and cells were further incubated for an additional 5 minutes. BRET values were then collected using a Mithras™ LB940 Multimode Microplate Reader or a TRISTAR® LB942 Multimode Microplate Reader, equipped with the following filters: 400 nm±70 nm (energy donor) and 515 nm±20 nm (energy acceptor). BRET values were determined by calculating the ratio of the light emitted by GFP (515 nm) over the light emitted by the Rluc (400 nm). To determine the % of activation (Stim as % of basal), BRET values obtained for the agonist treated cells where expressed as a percentage of the BRET values obtained with the corresponding cells treated with vehicle.
(§2) G-protein inhibitors. BRET assays were performed as described previously, except that cells were pre-treated overnight at 37° C. with 100 ng/ml of pertussis toxin, or, for 20 minutes at 37° C. with 100 nM of Ubo-Qic.

Gα13 = molecular target: T2, Gα13 (Homo sapiens, UniProt Q14344); test: as above; format: cell-based; conditions: U-46619 100 nM, FIG. 5C
T2 construct: host or cells: HEK293
T2 sequence (Q14344 1-377): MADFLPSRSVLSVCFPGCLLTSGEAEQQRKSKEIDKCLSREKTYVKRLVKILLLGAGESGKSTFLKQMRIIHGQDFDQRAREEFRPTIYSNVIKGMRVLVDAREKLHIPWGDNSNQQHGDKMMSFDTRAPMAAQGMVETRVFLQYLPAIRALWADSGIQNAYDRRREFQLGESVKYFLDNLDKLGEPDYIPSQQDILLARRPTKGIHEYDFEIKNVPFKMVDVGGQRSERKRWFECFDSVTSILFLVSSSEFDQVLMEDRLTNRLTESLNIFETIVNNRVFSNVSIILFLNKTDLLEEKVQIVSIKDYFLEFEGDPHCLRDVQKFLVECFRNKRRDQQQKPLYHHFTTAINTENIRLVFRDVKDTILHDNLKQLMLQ
Protocol: as §1, §2

Gα12 = molecular target: T3, Gα12 (Homo sapiens, UniProt Q03113); test: as above; format: cell-based; conditions: U-46619 100 nM, FIG. 5C
T3 construct: host or cells: HEK293
T3 sequence (Q03113 1-381): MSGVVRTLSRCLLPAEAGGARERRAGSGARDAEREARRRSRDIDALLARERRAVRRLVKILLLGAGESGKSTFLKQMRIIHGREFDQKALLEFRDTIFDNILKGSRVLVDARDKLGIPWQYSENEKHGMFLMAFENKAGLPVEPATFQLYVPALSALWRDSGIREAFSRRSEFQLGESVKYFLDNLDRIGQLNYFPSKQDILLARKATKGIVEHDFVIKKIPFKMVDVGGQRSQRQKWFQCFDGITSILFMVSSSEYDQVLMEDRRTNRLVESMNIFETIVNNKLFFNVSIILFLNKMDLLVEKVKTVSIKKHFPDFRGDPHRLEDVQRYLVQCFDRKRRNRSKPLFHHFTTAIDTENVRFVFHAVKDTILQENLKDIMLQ
Protocol: as §1, §2

Gαi1 = molecular target: T4, Gαi1 (Homo sapiens, UniProt P63096); test: G-protein inhibitor pre-treatment, D2R/Gαi1 BRET biosensor response; format: cell-based; conditions: D2R/Gαi1, agonist rotigotine; 100 nM Ubo-Qic for 20 minutes or 100 ng/ml pertussis toxin overnight; FIG. 5B
T4 construct: host or cells: HEK293
Protocol: as §1, §2

Gαq = molecular target: T5, Gαq (Homo sapiens, UniProt P50148); test: G-protein inhibitor pre-treatment, TPαR/Gαq BRET biosensor response; format: cell-based; conditions: agonist U-46619, 100 nM Ubo-Qic for 20 minutes or 100 ng/ml pertussis toxin overnight, FIG. 5A
T5 construct: host or cells: HEK293
T5 sequence (P50148 1-359): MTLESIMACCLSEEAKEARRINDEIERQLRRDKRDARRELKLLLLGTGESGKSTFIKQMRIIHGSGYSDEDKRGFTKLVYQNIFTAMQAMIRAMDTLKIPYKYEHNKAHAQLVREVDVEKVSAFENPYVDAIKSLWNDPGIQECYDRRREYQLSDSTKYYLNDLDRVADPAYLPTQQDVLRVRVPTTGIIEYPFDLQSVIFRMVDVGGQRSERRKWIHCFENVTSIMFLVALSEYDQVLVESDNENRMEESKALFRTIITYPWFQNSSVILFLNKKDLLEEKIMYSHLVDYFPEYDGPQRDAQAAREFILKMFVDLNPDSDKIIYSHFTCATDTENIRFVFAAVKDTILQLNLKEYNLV
Protocol: as §1, §2

GαqF75G = molecular target: T6, GαqF75G (Homo sapiens, UniProt P50148, F75G); test: Ubo-Qic sensitivity of the activation of mutant Gαq (BRET biosensor); format: cell-based; conditions: Gαq Phe75 to glycine; FIG. 5D
T6 construct: expressed in transfected cells; host or cells: HEK293
T6 sequence (P50148 1-359 F75G): T5 sequence (P50148 1-359) with F75G
Excerpt: (§3) Expression vectors: Receptors and G-proteins. The plasmid encoding AT1 R was a generous gift from Stéphane Laporte (McGill University, Montréal, Canada). Gαq, Gα11, Gα12, Gα13, Gα14, Gα15/16, GαoA, GαoB, Gαz, Gαs, Gαi1, Gαi2, Gαi3, Gβ1, TPαR, D2R and α1BAR were obtained from the cDNA Resource Center (cDNA.org). Plasmids encoding mutant Gα proteins including GαqG66K, GαqY67C and GαqF75G, were obtained by site-directed mutagenesis (PCR overlap) of the Gαq wild-type protein coding sequence using the primers depicted in Table I. The PCR fragments were digested with Acc65I+XhoI restriction enzymes and cloned in pCDNA3.1 Zeo(+) (from Invitrogen®, Carlsbad, Calif.) digested Acc65I+XhoI. […]
(§4) BRET assays in living cells. […] BRET values were then collected using a Mithras™ LB940 Multimode Microplate Reader or a TRISTAR® LB942 Multimode Microplate Reader, equipped with the following filters: 400 nm±70 nm (energy donor) and 515 nm±20 nm (energy acceptor). BRET values were determined by calculating the ratio of the light emitted by GFP (515 nm) over the light emitted by the Rluc (400 nm). To determine the % of activation (Stim as % of basal), BRET values obtained for the agonist treated cells where expressed as a percentage of the BRET values obtained with the corresponding cells treated with vehicle. […]

[1] = tested on: Gαq substituted at position 67 (Y67C, Y67G, Y67S & Y67L); test: as above; format: cell-based, human; conditions: FIG. 5D
Excerpt: as §3, §4

[2] = molecular target: T7, angiotensin II type 1 receptor (AT1R) (Homo sapiens, UniProt P30556); test: Ligand profiling with the βγIP-based BRET biosensor, AT1R with Gαq or Gα12; format: cell-based; conditions: Gα12 versus Gαq, FIG. 8C
T7 construct: host or cells: HEK293
T7 sequence (P30556 1-359): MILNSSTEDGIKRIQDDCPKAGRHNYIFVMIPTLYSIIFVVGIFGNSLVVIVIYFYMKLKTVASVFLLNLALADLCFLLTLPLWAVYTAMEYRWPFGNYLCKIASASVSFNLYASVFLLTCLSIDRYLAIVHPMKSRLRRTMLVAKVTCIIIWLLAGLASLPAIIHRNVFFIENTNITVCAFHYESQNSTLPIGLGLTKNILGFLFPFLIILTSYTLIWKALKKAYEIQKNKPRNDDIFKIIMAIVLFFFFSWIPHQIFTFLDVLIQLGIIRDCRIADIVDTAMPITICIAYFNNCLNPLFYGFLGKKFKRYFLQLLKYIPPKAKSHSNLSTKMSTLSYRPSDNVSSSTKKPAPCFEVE
Protocol: Cell culture and transfections. Human embryonic kidney 293 (HEK293) cells were maintained in Dulbecco's Modified Eagle's Medium (DMEM) supplemented with 10% fetal bovine serum, 100 unit/ml penicillin/streptomycin at 37° C. in a humidified atmosphere with 5% CO2. Two days before the experiments, HEK293 cells were transfected with the indicated plasmids using poly-ethylenimine 25-kDa linear (PEI) as a transfecting agent (at a ratio of 3 to 1, PEI/DNA) (Hamdan, Rochdi et al. 2007), and then directly seeded in 96-well plates pre-treated with poly-L-ornithine hydrobromide or Poly-D-Lysine, at a density of 35,000 cells per well (for BRET and PCA assays in living cells), or 6-well plates at a density of 1,000,000 cells per well (for BRET assays on membrane preparations).
BRET assays in living cells. […] BRET values were then collected using a Mithras™ LB940 Multimode Microplate Reader or a TRISTAR® LB942 Multimode Microplate Reader, equipped with the following filters: 400 nm±70 nm (energy donor) and 515 nm±20 nm (energy acceptor). BRET values were determined by calculating the ratio of the light emitted by GFP (515 nm) over the light emitted by the Rluc (400 nm). To determine the % of activation (Stim as % of basal), BRET values obtained for the agonist treated cells where expressed as a percentage of the BRET values obtained with the corresponding cells treated with vehicle.

T4 sequence (P63096 whole entry): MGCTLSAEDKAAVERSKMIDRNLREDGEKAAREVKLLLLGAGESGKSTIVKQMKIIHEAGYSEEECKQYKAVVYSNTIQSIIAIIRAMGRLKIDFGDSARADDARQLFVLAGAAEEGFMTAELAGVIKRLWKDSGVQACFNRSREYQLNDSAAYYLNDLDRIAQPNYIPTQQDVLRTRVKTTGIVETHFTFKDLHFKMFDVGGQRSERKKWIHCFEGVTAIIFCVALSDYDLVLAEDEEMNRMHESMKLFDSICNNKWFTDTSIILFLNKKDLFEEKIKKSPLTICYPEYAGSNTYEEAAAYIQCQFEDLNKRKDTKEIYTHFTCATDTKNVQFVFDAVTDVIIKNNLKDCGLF

| Compound | sensitivity of G-protein activation to the inhibitor (Gα15/16) | sensitivity of G-protein activation to the inhibitor (Gα13) | sensitivity of G-protein activation to the inhibitor (Gα12) | effect of pre-treatment on the biosensor BRET response after agonist incubation (Gαi1) | effect of pre-treatment on the BRET response following agonist stimulation (Gαq) | inhibition of mutant Gαq activation (GαqF75G) | sensitivity of mutant Gαq activation to the inhibitor [1] | efficacy of G-protein activation relative to angiotensin II response [2] |
| --- | --- | --- | --- | --- | --- | --- | --- | --- |
| C=C1C(=O)N[C@@H](C)C(=O)N(C)[C@@H](C)C(=O)N[C@@H]([C@H](OC(=O)[C@@H](NC(=O)CC)[C@H](O)C(C)C)C(C)C)C(=O)N(C)[C@@H]([C@@H](C)OC)C(=O)O[C@H](C(C)C)[C@H](NC(C)=O)C(=O)O[C@H](Cc2ccccc2)C(=O)N1C [Ubo-Qic, L-threonine,(3R)-N-acetyl-3-hydroxy-L-leucyl-(aR)-a-hydroxybenzenepropanoyl-2,3-idehydro-N-methylalanyl-L-alanyl-N-methyl-L-alanyl-(3R)-3-[[(2S,3R)-3-hydroxy-4-methyl-1-oxo-2-[(1-oxopropyl)amino]pentyl]oxy]-L-leucyl-N,O-dimethyl-,(7→1)-lactone (9CI)] (Ac-[X1][dPhLac][NMeDha]A[NMeA][X1](Leu(3R-OH,Nα-propionyl))[NMeT](Me); ester 1-C) | insensitive | insensitive | insensitive | no detectable effect | completely abolished | partial | resistance | – |
| [Asp^1, Val^5, Gly^8]-AngII [DVG] | – | – | – | – | – | – | – | better efficacy for Gα12 activation than Gαq |
